US9717706B2, “Chromone inhibitors of S-nitrosoglutathione reductase” (Nivalis Therapeutics, Inc., priority 2010, dated 2017)

system: not listed separately; assay: Mouse pharmacokinetic (PK) study; assay type: in vivo; conditions: plasma, male BALB/c mice, 10 mg/kg PO vs 2 mg/kg IV, single dose, based on area under the curve
Excerpt: The mouse is used to determine the pharmacokinetics of GSNOR inhibitors. This species is widely used to assess the bioavailability of compounds by administering both oral (PO) and intravenous (IV) test articles. Efficacy of the GSNOR inhibitors can be compared by assessing plasma exposure in male BALB/c mice either via IV or PO administration at the times of peak activity.
The GSNOR inhibitor Compound 10 was reconstituted in a phosphate buffered saline (PBS)/10% Solutol (HS 15) clear solution resulting in a concentration of 0.2 mg/mL and administered to mice (2 mg/kg) as a single IV dose. Animals were dosed via the lateral tail vein. […] The plasma was transferred into labeled polypropylene tubes and frozen at −70° C. until analyzed by LC/MS/MS.
The GSNOR inhibitor Compound 10 was reconstituted in 40% Propylene Glycol/40% Propylene Carbonate/20% of a 5% Sucrose clear solution resulting in a concentration of 2 mg/mL and administered to mice (10 mg/kg) as a single oral dose via gavage. […] The plasma was transferred into labeled polypropylene tubes and frozen at −70° C. until analyzed by LC/MS/MS.
Plasma samples at each timepoint were analyzed using a LC-MS/MS with a lower limit of quantification (LLOQ) of 1 ng/mL. Plasma was analyzed to determine the amount of the GSNOR inhibitor in each sample and regression curves were generated for each GSNOR inhibitor in the relevant matrixes. […]

bioavailability [%] | SMILES
> 17 | O=C(O)c1ccc(-c2c(C(F)(F)F)oc3cc(O)ccc3c2=O)cc1 [Example 10, 4-(7-hydroxy-4-oxo-2-(trifluoromethyl)-4H-chromen-3-yl)benzoic acid]

target: T1, GSNOR (Homo sapiens, UniProt P11766); assay: GSNOR assay (inhibition of GSNOR activity, NADH absorbance at 340 nm); assay type: biochemical; conditions: assay of Example 24; 0.240 mM GSNO, 0.300 mM NADH, pH 7.4, 25° C.; read-out: IC50 (GSNOR inhibitor activity)
T1 construct: made in house; host or cells: E. coli (arabinose-induced)
Procedure: Various compounds were tested in vitro for their ability to inhibit GSNOR activity. GSNOR expression and purification is described in Biochemistry 2000, 39, 10720-10729.
GSNOR Fermentation: Pre-cultures were grown from stabs of a GSNOR glycerol stock in 2XYT media containing 100 ug/ml ampicillin after an overnight incubation at 37° C. Cells were then added to fresh 2XYT (4 L) containing ampicillin and grown to an OD (A600) of 0.6-0.9 at 37° C. before induction. GSNOR expression was induced with 0.1% arabinose in an overnight incubation at 20° C.
GSNOR Purification: E. coli cell paste was lysed by nitrogen cavitation and the clarified lysate purified by Ni affinity chromatography on an AKTA FPLC (Amersham Pharmacia). The column was eluted in 20 mM Tris pH 8.0/250 mM NaCl with a 0-500 mM imidazole gradient. Eluted GSNOR fractions containing the Smt-GSNOR fusion were digested overnight with Ulp-1 at 4° C. to remove the affinity tag then re-run on the Ni column under the same conditions. GSNOR was recovered in the flowthrough fraction and for crystallography is further purified by Q-Sepharose and Heparin flowthrough chromatography in 20 mM Tris pH 8.0, 1 mM DTT, 10 uM ZnSO4.
GSNOR Assay: GSNO and Enzyme/NADH Solutions are made up fresh each day. The Solutions are filtered and allowed to warm to room temperature. GSNO Solution: 100 mM NaPO4 (pH 7.4), 0.480 mM GSNO. 396 μL of GSNO Solution is added to a cuvette followed by 8 μL of test compound in DMSO (or DMSO only for full reaction control) and mixed with the pipette tip. Compounds to be tested are made up at a stock concentration of 10 mM in 100% DMSO. 2 fold serial dilutions are done in 100% DMSO. 8 μL of each dilution are added to an assay so that the final concentration of DMSO in the assay is 1%. The concentrations of compounds tested range from 100 to 0.003 μM. Enzyme/NADH Solution: 100 mM NaPO4 (pH 7.4), 0.600 mM NADH, 1.0 μg/mL GSNO Reductase. 396 μL of the Enzyme/NADH Solution is added to the cuvette to start the reaction. The cuvette is placed in the Cary 3E UV/Visible Spectrophotometer and the change in 340 nm absorbance/min at 25° C. is recorded for 3 minutes. The assays are done in triplicate for each compound concentration. IC50's for each compound are calculated using the standard curve analysis in the Enzyme Kinetics Module of SigmaPlot.
Final assay conditions: 100 mM NaPO4, pH 7.4, 0.240 mM GSNO, 0.300 mM NADH, 0.5 μg/mL GSNO Reductase and 1% DMSO. Final volume: 800 μL/cuvette.

T1 sequence (P11766 whole entry): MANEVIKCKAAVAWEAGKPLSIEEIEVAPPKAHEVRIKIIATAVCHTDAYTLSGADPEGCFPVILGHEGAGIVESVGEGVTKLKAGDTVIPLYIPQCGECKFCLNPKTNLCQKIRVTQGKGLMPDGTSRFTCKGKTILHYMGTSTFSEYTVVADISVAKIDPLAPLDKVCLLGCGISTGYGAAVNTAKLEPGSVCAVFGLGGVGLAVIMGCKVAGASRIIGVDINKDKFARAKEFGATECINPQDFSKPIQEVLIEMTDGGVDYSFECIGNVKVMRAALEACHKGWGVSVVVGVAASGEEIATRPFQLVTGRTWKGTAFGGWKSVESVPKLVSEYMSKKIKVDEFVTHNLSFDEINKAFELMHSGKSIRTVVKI

SMILES | IC50 [nM]
O=C(O)c1ccc(-c2c(C(F)(F)F)oc3cc(O)ccc3c2=O)cc1F [Example 14, 2-fluoro-4-(7-hydroxy-4-oxo-2-(trifluoromethyl)-4H-chromen-3-yl)benzoic acid] | < 100
CC(C)c1oc2cc(O)ccc2c(=O)c1-c1ccc(C(=O)O)cc1 [Example 3, 4-(7-hydroxy-2-isopropyl-4-oxo-4H-chromen-3-yl)benzoic acid] | < 500
O=C(O)c1ccc(-c2c(C(F)(F)F)oc3cc(O)ccc3c2=O)cc1 [Example 10, 4-(7-hydroxy-4-oxo-2-(trifluoromethyl)-4H-chromen-3-yl)benzoic acid] | < 100
COc1cc(C(=O)O)ccc1-c1c(C(F)(F)F)oc2cc(O)ccc2c1=O [Example 20, 4-(7-hydroxy-4-oxo-2-(trifluoromethyl)-4H-chromen-3-yl)-3-methoxybenzoic acid] | < 100
CC(F)(F)c1oc2cc(O)ccc2c(=O)c1-c1ccc(C(=O)O)cc1 [Example 16, 4-(2-(1,1-difluoroethyl)-7-hydroxy-4-oxo-4H-chromen-3-yl)benzoic acid] | < 100
COCc1oc2cc(O)ccc2c(=O)c1-c1ccc(C(=O)O)cc1 [Example 2, 4-(7-hydroxy-2-(methoxymethyl)-4-oxo-4H-chromen-3-yl)benzoic acid] | < 500
O=C(O)c1ccc(-c2c(C(F)(F)F)oc3cc(O)c(F)cc3c2=O)cc1 [Example 13, 4-(6-fluoro-7-hydroxy-4-oxo-2-(trifluoromethyl)-4H-chromen-3-yl)benzoic acid] | < 500
CCC(F)(F)c1oc2cc(O)ccc2c(=O)c1-c1ccc(C(=O)O)cc1 [Example 19, 4-(2-(1,1-difluoropropyl)-7-hydroxy-4-oxo-4H-chromen-3-yl)benzoic acid] | < 500

More lines, now with the values ahead:

IC50 [nM] | SMILES
< 100 | O=C(O)c1ccc(-c2c(C(F)(F)F)oc3cc(O)ccc3c2=O)cc1Cl [Example 18, 2-chloro-4-(7-hydroxy-4-oxo-2-(trifluoromethyl)-4H-chromen-3-yl)benzoic acid]
< 500 | O=C(O)c1ccc(-c2c(Cc3ccccc3)oc3cc(O)ccc3c2=O)cc1 [Example 6, 4-(2-benzyl-7-hydroxy-4-oxo-4H-chromen-3-yl)benzoic acid]
< 100 | O=C(O)c1ccc(-c2c(C(F)(F)F)oc3cc(O)ccc3c2=O)c(Cl)c1 [Example 15, 3-chloro-4-(7-hydroxy-4-oxo-2-(trifluoromethyl)-4H-chromen-3-yl)benzoic acid]
< 500 | Cc1oc2cc(O)ccc2c(=O)c1-c1ccc(C(=O)O)cc1 [Example 5, 4-(7-hydroxy-2-methyl-4-oxo-4H-chromen-3-yl)benzoic acid]
< 100 | O=C(O)c1ccc(-c2c(C(F)F)oc3cc(O)ccc3c2=O)cc1 [Example 1, 4-(2-(difluoromethyl)-7-hydroxy-4-oxo-4H-chromen-3-yl)benzoic acid]

same assay, conditions: method described in Example 24; comparative example; read-out: IC50 (GSNOR inhibitor activity)

IC50 [nM] | SMILES
135 | O=C(O)c1ccc(-c2coc3cc(O)ccc3c2=O)cc1 [Example 22, 4-(7-hydroxy-4-oxo-4H-chromen-3-yl)benzoic acid, reference compound]
